Article PMC5547389, “Structure-activity relationships and molecular docking studies of chromene and chromene based azo chromophores: A novel series of potent antimicrobial and anticancer agents” (EXCLI Journal, 2017)
Values after ≈ are worked out from the molar mass of the structure shown.

What was measured:
[1] = tested on: Candida albicans (RCMB 05036); assay: Well diffusion assay (inhibition zone); type: cell-based; conditions: RCMB05036, 5 mg/mL in DMSO, fungi, read-out: Inhibition Zone (IZ) diameter, C.A
Summary of the method: (§1)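 Agar well diffusion with 10 mm wells, nutrient agar for bacteria and malt extract agar for fungi. Plates were incubated 24-48 h at 37 °C for bacteria or 28 °C for fungi. Inhibition zone diameters were measured in mm, in triplicate.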

[2] = tested on: Candida albicans (RCMB 05036); assay: MIC by serial dilution method; type: cell-based; conditions: RCMB05036, fungi, read-out: Minimum inhibitory concentration, MIC, C.A
Summary of the method: (§2)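 Using ampicillin, ciprofloxacin, gentamicin and amphotericin B as standard drugs, test compounds are screened by agar well diffusion, and their minimum inhibitory concentrations are then measured by serial dilution.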

[3] = tested on: Pseudomonas aeruginosa (RCMB 010043); assay: Well diffusion assay (inhibition zone); type: cell-based; conditions: RCMB010043, 5 mg/mL in DMSO, Gm-ve, read-out: Inhibition Zone (IZ) diameter, P.A
Summary of the method: as §1

[4] = tested on: Pseudomonas aeruginosa (RCMB 010043); assay: MIC by serial dilution method; type: cell-based; conditions: RCMB010043, Gm-ve, read-out: Minimum inhibitory concentration, MIC, P.A
Summary of the method: as §2

caspase-3 and -7 = assay: Caspase-Glo 3/7 caspase activity assay; type: cell-based, human; conditions: compared to control and doxorubicin; MCF-7 and HCT-116; compounds at IC50 concentration, 48 h
Description: To measure caspase-3 and -7 activities, a luminescent Caspase-Glo 3/7 assay was performed. HCT116 and MCF-7 cells were seeded onto black 96-well plates at a density of 3,500 cells/well. […] After 48 h a Caspase-Glo 3/7 Assay (Promega) was performed according to the manufacturer's instructions. After adding 100 μL of Caspase 3/7 Glo Reagent, cells were incubated for 2.5 h at room temperature. The luminescence was measured using a multi-plate reader (Synergy 4, BioTek) with an integration time of 1 second per well. The values are the means ± SD of three sets of experiments.
The initial reported assay of 4-aryl-4H-chromene series were identified as apoptosis inducers via caspase activation (Elinson et al., 2010[20]; Sondhi et al., 2010[58]; Thareja et al., 2010[60]; Trinchieri, 2015[61]). Furthermore, it was important to investigate the antiproliferative effect of the novel synthesized compounds 4a, 4b, and 4c using caspase-3 and -7 activities compared to doxorubicin and vehicle control drug in the corresponding cancer cell lines MCF-7 and HCT-116.

| Compound | zone of inhibition at 5000 µg/mL [1] [mm] | MIC [2] [mg/L] | zone of inhibition at 5000 µg/mL [3] [mm] | MIC [4] [mg/L] | elevation in the caspase activity (caspase-3 and -7) |
| --- | --- | --- | --- | --- | --- |
| N#CC1=C(N)Oc2c(N)cc3ccccc3c2C1c1ccc(F)cc1 (stereo not drawn) [4a, 3,5-diamino-1-(4-fluorophenyl)-1H-benzo[f]chromene-2-carbonitrile] | 9.4 | 125 (≈ 377 µM) |  |  |  |
| N#CC1=C(N)Oc2c(N)cc3ccccc3c2C1c1ccc(Cl)cc1 (stereo not drawn) [4b, 3,5-diamino-1-(4-chlorophenyl)-1H-benzo[f]chromene-2-carbonitrile] |  |  | 13.1 | 125 (≈ 359 µM) | 2-3 folds |
| Cc1ccc(C2C(C#N)=C(N)Oc3c(N)cc4ccccc4c32)cc1 (stereo not drawn) [4c, 3,5-diamino-1-(p-tolyl)-1H-benzo[f]chromene-2-carbonitrile] |  |  |  |  | 2-3 folds |
